The values that follow come from ChEMBL document CHEMBL4699665, “Discovery of ANT3310, a Novel Broad-Spectrum Serine β-Lactamase Inhibitor of the Diazabicyclooctane Class, Which Strongly Potentiates Meropenem Activity against Carbapenem-Resistant Enterobacterales and Acinetobacter baumannii” (J Med Chem, 2020).

Experiment [1] in a line: Inhibition of beta lactamase AmpC in Enterobacter cloacae assessed as decrease in enzyme activity using nitrocefin as substrate preincubated for 10 mins followed by substrate addition measured for 10 mins by fluorescence plate reader analysis.
A short description of experiment [2]: Inhibition of beta lactamase CTXM-15 in Enterobacter cloacae assessed as decrease in enzyme activity using nitrocefin as substrate preincubated for 10 mins followed by substrate addition measured for 10 mins by fluorescence plate reader analysis.
A short description of experiment [3]: Inhibition of beta lactamase TEM-1 in Enterobacter cloacae assessed as decrease in enzyme activity using nitrocefin as substrate preincubated for 10 mins followed by substrate addition measured for 10 mins by fluorescence plate reader analysis.
Experiment [4] is described as follows: Inhibition of beta lactamase OXA-48 in Enterobacter cloacae assessed as decrease in enzyme activity using nitrocefin as substrate preincubated for 10 mins followed by substrate addition measured for 10 mins by fluorescence plate reader analysis.
Experiment [5] in a line: Inhibition of beta lactamase KPC-2 in Enterobacter cloacae assessed as decrease in enzyme activity using nitrocefin as substrate preincubated for 10 mins followed by substrate addition measured for 10 mins by fluorescence plate reader analysis.
A short description of experiment [6]: Inhibition of bacteria beta lactamase OXA-23 assessed as decrease in enzyme activity using nitrocefin as substrate preincubated for 10 mins followed by substrate addition measured for 10 mins by fluorescence plate reader analysis.
Experiment [7] relates to Enterobacter cloacae. Put plainly: Potentiation of meropenem-induced antibacterial activity against Enterobacter cloacae expressing TEM-1/KPC-2 assessed as meropenem MIC at 4 ug/ml by broth microdilution method (reference value: 8 ug/ml). In kind it is functional. The settings on record: dose 4 µg/ml. (Broth dilution looks for growth in wells or tubes with falling amounts of substance.)

Experiment [8] has as its system Klebsiella pneumoniae. Briefly: Potentiation of meropenem-induced antibacterial activity against Klebsiella pneumoniae expressing TEM-OSBL/CTX-M-14/OXA-48 assessed as meropenem MIC at 4 ug/ml by broth microdilution method (reference value: 16 ug/ml). The experiment is classed as functional. The settings on record: dose 4 µg/ml.
Experiment [9] relates to Klebsiella pneumoniae. Briefly: Potentiation of meropenem-induced antibacterial activity against Klebsiella pneumoniae expressing TEM-1/SHV-11/KPC-3 assessed as meropenem MIC at 4 ug/ml by broth microdilution method (reference value: 128 ug/ml). In kind it is functional. The conditions noted are these: dose 4 µg/ml.
Experiment [10] concerns Klebsiella pneumoniae. Put plainly: Potentiation of meropenem-induced antibacterial activity against Klebsiella pneumoniae expressing SHV-11/OXA-121 assessed as meropenem MIC at 4 ug/ml by broth microdilution method (reference value: 16 ug/ml). The experiment is classed as functional. The settings on record: dose 4 µg/ml.
Experiment [11] has as its system Acinetobacter baumannii. Briefly: Potentiation of meropenem-induced antibacterial activity against Acinetobacter baumannii expressing OXA-23 assessed as meropenem MIC at 4 ug/ml by broth microdilution method (reference value: 32 ug/ml). The experiment is classed as functional. The conditions noted are these: dose 4 µg/ml.
Experiment [12] concerns Enterobacter cloacae. Briefly: Antibacterial activity against Enterobacter cloacae expressing TEM-1/KPC-2 by broth microdilution method. The experiment is classed as functional.
Experiment [13] relates to Klebsiella pneumoniae. Put plainly: Antibacterial activity against Klebsiella pneumoniae expressing TEM-OSBL/CTX-M-14/OXA-48 by broth microdilution method. The experiment is classed as functional.
Experiment [14] deals with Klebsiella pneumoniae. Briefly: Antibacterial activity against Klebsiella pneumoniae expressing TEM-1/SHV-11/KPC-3 by broth microdilution method. The experiment is classed as functional.
Experiment [15] deals with Klebsiella pneumoniae. Briefly: Antibacterial activity against Klebsiella pneumoniae expressing SHV-11/OXA-181 by broth microdilution method. In kind it is functional.
The subject of experiment [16] is Acinetobacter baumannii. Put plainly: Antibacterial activity against Acinetobacter baumannii expressing OXA-23 by broth microdilution method. In kind it is functional.

Values after ≈ are worked out from the molar mass of the structure shown. A value given as a limit tells only on which side of the number the result lay.

Take `O=C1N2C[C@@H](CC[C@H]2COC(F)(F)F)N1OS(=O)(=O)[O-].[Na+]`: the half-maximal inhibitory concentration (IC50) in [1] was 23 nM; in [2], 11 nM; in experiment [3], 117 nM; in experiment [4] it was 15 nM; in [5], 13 nM; in experiment [6], more than 3000 nM. Besides, the minimum inhibitory concentration (MIC) in the experiment with Enterobacter cloacae [7] was found to be 0.25 µg/mL; in the experiment with Klebsiella pneumoniae [8] it was 8 µg/mL; in the experiment with Klebsiella pneumoniae [9] it was 32 µg/mL; in the experiment on Klebsiella pneumoniae [10] it was 16 µg/mL; in the experiment with Acinetobacter baumannii [11] it was 32 µg/mL.
`O=C1N2C[C@@H](CC[C@H]2CCl)N1OS(=O)(=O)[O-].[Na+]`: the IC50 is 26 nM in experiment [1]; 84 nM in experiment [2]; 135 nM in experiment [3]; 443 nM in [4]; 28 nM in experiment [5]; more than 3000 nM in [6]. The minimal inhibitory concentration (MIC) was 0.06 µg/mL with Enterobacter cloacae [7]; 8 µg/mL with Klebsiella pneumoniae [8]; 2 µg/mL in the experiment on Klebsiella pneumoniae [9]; 16 µg/mL with Klebsiella pneumoniae [10]; 32 µg/mL in the experiment on Acinetobacter baumannii [11].
In the case of `O=C1N2C[C@@H](CC[C@H]2Cl)N1OS(=O)(=O)[O-].[Na+]`, the half-inhibitory concentration (IC50) was found to be 4 nM in [1]; 8 nM in [2]; 1 nM in experiment [3]; 269 nM in [4]; 31 nM in [5]. For the same compound, the minimal inhibitory concentration (MIC) is 0.06 µg/mL in the experiment with Enterobacter cloacae [7]; 4 µg/mL in the experiment on Klebsiella pneumoniae [8]; 64 µg/mL with Klebsiella pneumoniae [9]; 4 µg/mL with Klebsiella pneumoniae [10]; 32 µg/mL in the experiment on Acinetobacter baumannii [11].
On to `O=C1N2C[C@@H](CC[C@H]2SC(F)(F)F)N1OS(=O)(=O)[O-].[Na+]`, for which the IC50 stood at 2 nM in experiment [1]; 10 nM in experiment [2]; 26 nM in [3]; 99 nM in experiment [4]; 2 nM in [5]; 1320 nM in experiment [6]. Further, the minimum inhibitory concentration (MIC) with Enterobacter cloacae [7] was 0.03 µg/mL; in the experiment with Klebsiella pneumoniae [8], 8 µg/mL; with Klebsiella pneumoniae [9], 4 µg/mL; in the experiment on Klebsiella pneumoniae [10], 8 µg/mL; in the experiment on Acinetobacter baumannii [11], 32 µg/mL.
Turning to `CC(F)(F)[C@@H]1CC[C@@H]2CN1C(=O)N2OS(=O)(=O)[O-].[Na+]`, the IC50 was 313 nM in experiment [1]; 200 nM in experiment [2]; 267 nM in experiment [3]; 169 nM in experiment [4]; 43 nM in experiment [5]; more than 3000 nM in [6]. Moreover, the minimum inhibitory concentration (MIC) in the experiment with Enterobacter cloacae [7] turned out to be 0.06 µg/mL; in the experiment with Klebsiella pneumoniae [8], 8 µg/mL; with Klebsiella pneumoniae [9], 2 µg/mL; in the experiment with Klebsiella pneumoniae [10] it was 16 µg/mL; in the experiment with Acinetobacter baumannii [11] it was 32 µg/mL.
As for `O=C1N2C[C@@H](CC[C@H]2C(F)F)N1OS(=O)(=O)[O-].[Na+]`, the IC50 in experiment [1] worked out at 35 nM; in experiment [2], 17 nM; in experiment [3] it was 208 nM; in experiment [4], 64 nM; in [5], 7 nM; in experiment [6], 1600 nM. In addition, the minimum inhibitory concentration (MIC) in the experiment on Enterobacter cloacae [7] turned out to be 0.06 µg/mL; in the experiment on Klebsiella pneumoniae [8] it was 2 µg/mL; in the experiment on Klebsiella pneumoniae [9] it was 1 µg/mL; in the experiment on Klebsiella pneumoniae [10], 1 µg/mL; in the experiment on Acinetobacter baumannii [11], 16 µg/mL.
Regarding `O=C1N2C[C@@H](CC[C@H]2S(=O)(=O)C(F)(F)F)N1OS(=O)(=O)[O-].[Na+]`, the IC50 in experiment [1] is less than 1 nM; in [2] it was 2 nM; in [3], 1 nM; in [4], 15 nM; in experiment [5], 15 nM. Besides, the MIC in the experiment on Enterobacter cloacae [7] worked out at 0.06 µg/mL; with Klebsiella pneumoniae [8], 8 µg/mL; with Klebsiella pneumoniae [9] it was 8 µg/mL; with Klebsiella pneumoniae [10] it was 16 µg/mL; with Acinetobacter baumannii [11] it was 32 µg/mL.
As to `O=C1N2C[C@@H](CC[C@H]2C(Cl)Cl)N1OS(=O)(=O)[O-].[Na+]`, the IC50 was 52 nM in experiment [1]; 178 nM in [2]; 403 nM in experiment [3]; 178 nM in [4]; 4 nM in experiment [5]; 1680 nM in [6]. For the same compound, the minimum inhibitory concentration (MIC) was determined as 0.06 µg/mL in the experiment with Enterobacter cloacae [7]; 16 µg/mL with Klebsiella pneumoniae [8]; 2 µg/mL in the experiment with Klebsiella pneumoniae [9]; 16 µg/mL in the experiment on Klebsiella pneumoniae [10]; 32 µg/mL in the experiment with Acinetobacter baumannii [11].
For the compound `O=C1N2C[C@@H](CC[C@H]2C(F)(F)c2nccs2)N1OS(=O)(=O)[O-].[Na+]`, the half-inhibitory concentration (IC50) in experiment [1] is 1 nM; in [2] it was 19 nM; in experiment [3], 216 nM; in [4], 1110 nM; in experiment [5], 3 nM; in experiment [6] it was more than 3000 nM. Further, the minimal inhibitory concentration (MIC) came to 0.125 µg/mL in the experiment on Enterobacter cloacae [7]; 16 µg/mL with Klebsiella pneumoniae [8]; 8 µg/mL in the experiment with Klebsiella pneumoniae [9]; 16 µg/mL in the experiment with Klebsiella pneumoniae [10]; 32 µg/mL in the experiment on Acinetobacter baumannii [11].
`O=C1N2C[C@@H](CC[C@H]2C(F)(F)F)N1OS(=O)(=O)[O-].[Na+]`: the IC50 in experiment [1] stood at 4 nM; in experiment [2], 10 nM; in experiment [3], 810 nM; in experiment [4] it was 19 nM; in experiment [5] it was 6 nM; in experiment [6] it was 810 nM. The minimal inhibitory concentration (MIC) amounted to 0.06 µg/mL in the experiment on Enterobacter cloacae [7]; 2 µg/mL in the experiment on Klebsiella pneumoniae [8]; 2 µg/mL with Klebsiella pneumoniae [9]; 2 µg/mL with Klebsiella pneumoniae [10]; 16 µg/mL in the experiment on Acinetobacter baumannii [11].
For the compound `O=C1N2C[C@@H](CC[C@H]2CF)N1OS(=O)(=O)[O-].[Na+]`, the concentration for half-maximal inhibition (IC50) in experiment [1] was 304 nM; in experiment [2] it was 119 nM; in experiment [3], 492 nM; in [4], 154 nM; in experiment [5], 51 nM; in experiment [6] it was more than 3000 nM. The MIC in the experiment on Enterobacter cloacae [7] was 0.125 µg/mL; with Klebsiella pneumoniae [8], 1 µg/mL; with Klebsiella pneumoniae [9], 2 µg/mL; in the experiment on Klebsiella pneumoniae [10], 1 µg/mL; in the experiment with Acinetobacter baumannii [11], 32 µg/mL.
With `O=C1N2CCC[C@H](C2)N1OS(=O)(=O)[O-].[Na+]`, the IC50 was more than 3000 nM in [1]; 1200 nM in experiment [2]; 511 nM in experiment [3]; 1340 nM in [4]; more than 3000 nM in experiment [5]; more than 3000 nM in experiment [6]. The MIC turned out to be 2 µg/mL in the experiment with Enterobacter cloacae [7]; 4 µg/mL in the experiment on Klebsiella pneumoniae [8]; 64 µg/mL with Klebsiella pneumoniae [9]; 8 µg/mL in the experiment on Klebsiella pneumoniae [10]; 32 µg/mL in the experiment with Acinetobacter baumannii [11].
Take `O=C(NNC(=O)[C@@H]1CC[C@@H]2CN1C(=O)N2OS(=O)(=O)O)[C@@H]1CCCNC1` [ZIDEBACTAM]: the minimal inhibitory concentration (MIC) against Enterobacter cloacae [12] was 0.5 µg/mL (≈ 1.28 µM); against Klebsiella pneumoniae [13] it was 0.25 µg/mL (≈ 0.639 µM); in the experiment on Klebsiella pneumoniae [14], 2 µg/mL (≈ 5.11 µM); against Klebsiella pneumoniae [15] it was 2 µg/mL (≈ 5.11 µM); against Acinetobacter baumannii [16] it was more than 128 µg/mL.

The term IC50 denotes the concentration needed to halve the response being measured. The MIC is the least concentration at which growth counts as inhibited.
